Molecules are shown by their SMILES. Read-outs that look alike come from different tables or passages of the source.

For assay [1], the system named is LTD4-induced blood pressure changes and arrhythmias. The experiment in a line: Leukotriene D4 (LTD4) Induced Arrhythmias in Conscious Guinea Pigs. It is filed as in vivo, guinea pig. Conditions: 10 mg/kg iv, 5 minutes before LTD4; for Peak Hypertension (Δmm Hg): saline control 30 ± 4; for % Arrhythmias: saline control 33 ± 4; for Peak Hypotension (Δmm Hg): saline control -45 ± 4. The method, then: Male Hartley guinea pigs are anesthetized with sodium pentobarbital and prepared for monitoring direct blood pressure and injecting drugs intravenously by catheterizing the right carotid artery and right jugular vein. Blood pressure, heart rate, and Lead II ECG are monitored in the conscious animal 24 hours later.
Intravenous administration of LTD4 (2.5 μg/kg) is associated with an increase in blood pressure lasting approximately 1-2 minutes followed by a decrease lasting approximately 5-15 minutes. Abnormal beats consisting of premature ventricular contractions, ST elevation or depression, atrioventricular conduction block, or dissociated p waves begin during the rise in blood pressure; the peak effect occurs approximately 40 seconds after LTD4. The percent of abnormal beats was quantitated by determining the number present during the first 2 minutes after injection and calculating the percent increase above the control level. During the hypotensive response, the animal usually collapses during the 2nd or 3rd minute after LTD4 and regains posture approximately 10 minutes after LTD4.
Test compounds were administered 5 minutes before the LTD4 challenge and effects on blood pressure and arrhythmias were monitored.

In assay [2] the target is T1, Δ^5 -Lipoxygenase (Rattus norvegicus, UniProt P12527).
T1 construct: using rat basophil leukemia cells (RBL-1 cells) as the enzyme source; endogenous in cells; host or cells: RBL-1 (rat basophil leukemia) cells, 49,300×g supernatant of homogenate
T1 sequence (P12527 1-673): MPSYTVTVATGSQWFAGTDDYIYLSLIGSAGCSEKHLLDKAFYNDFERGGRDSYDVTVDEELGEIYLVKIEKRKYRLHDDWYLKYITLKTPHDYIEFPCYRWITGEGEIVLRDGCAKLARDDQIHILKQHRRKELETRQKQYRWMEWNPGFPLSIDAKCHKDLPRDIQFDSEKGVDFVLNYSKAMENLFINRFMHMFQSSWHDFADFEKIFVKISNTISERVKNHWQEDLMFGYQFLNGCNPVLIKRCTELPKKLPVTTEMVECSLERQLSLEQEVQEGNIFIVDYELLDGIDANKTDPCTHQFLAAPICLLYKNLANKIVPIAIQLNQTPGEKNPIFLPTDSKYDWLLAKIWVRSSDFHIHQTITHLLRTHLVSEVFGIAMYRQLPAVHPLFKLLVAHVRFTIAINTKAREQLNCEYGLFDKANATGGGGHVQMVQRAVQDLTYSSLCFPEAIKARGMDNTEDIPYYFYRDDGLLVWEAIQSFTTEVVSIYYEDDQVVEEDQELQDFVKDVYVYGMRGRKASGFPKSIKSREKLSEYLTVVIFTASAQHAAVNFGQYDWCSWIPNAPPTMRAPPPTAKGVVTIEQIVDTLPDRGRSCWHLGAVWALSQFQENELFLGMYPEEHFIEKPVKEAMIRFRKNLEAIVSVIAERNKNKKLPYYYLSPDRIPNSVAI
Nature of the assay: Δ^5 -Lipoxygenase Inhibition. It is filed as biochemical. Conditions: at 10^-5 M; RBL-1 cell supernatant. How it is done:
Δ^5 -Lipoxygenase inhibition was measured by following the conversion of ^14 C-arachidonic acid to ^14 C-5-HETE, using rat basophil leukemia cells (RBL-1 cells) as the enzyme source. These cells were maintained in stationary stock cultures and grown in spinner cultures prior to isolation by centrifugation at 4° C. at 1,500×g for 10 minutes. The cells were washed three times at 4° C. with 0.05M Tris HCl (ph 7.2) containing 1 mM EDTA, 14 μM indomethacin and 0.9% NaCl. They were then homogenized at 0°-4° C. using a glass/glass homogenizer in 0.05M Tris-HCl (pH 7.2) containing 1 mM EDTA and 14 μM indomethacin. The homogenate was then centrifuged at 49,300×g for 20 minutes (0°-4° C.) and the resulting supernatant frozen in small aliquots in a dry ice/acetone bath prior to storage at -80° C. Under these conditions, the enzyme was stable to freezing and thawing and to preincubation for 10 minutes at 30° C.
For enzyme assay, 100-200 μl of enzyme was incubated in the presence and absence of test compound (prepared in DMSO) for 10 minutes at 30° C. in 0.05M Tris-HCl buffer (pH 7.2) containing 1 mM glutathione, 2 mM CaCl2, 14 μM indomethacin and 0.25 and 0.5 mM EDTA (final volume 400 μl). The final DMSO concentration in these assays was 4%. The assay was initiated by the addition of 100 μl ^14 C-arachidonic acid (58 mCi/mmole) and incubations were carried out for 10 minutes at 37° C. in a shaking water bath. The reactions were stopped by the simultaneous addition of 4.0 ml of diethylether and 100 μl of 1.0 m citric acid, while the tubes were vigorously vortexed. The ^14 C-5-HETE generated by the enzyme was extracted into the acidified ether layer which was separated from the aqueous layer by freezing the assay tubes in a dry ice/acetone bath prior to decanting the liquid ether layer. The ether layer was evaporated to dryness under N2, the residue dissolved in 65 μl chloroform:methanol (2:1 v/v), prior to separating ^14 C-5-HETE from other ^14 C-labeled compounds on silica gel impregnated glass fiber TLC plates utilizing an elution solvent of isoctane:methylethylketone:acetic acid (100:9:1 v/v). ^14 C-5-HETE was identified by its co-chromatography with a chemically synthesized standard. The radioactive peaks of the chromatogram were cut out and the radioactivity was quantitated by liquid scintillation counting. The amount of 5-HETE obtained per sample was expressed as the percent of total and was calculated in the basis of: [formula] in order to evaluate the effect of the test compounds, the mean percent inhibition of ^14 C-5-HETE production was calculated. The IC50 for a drug was determined from a linear regression analysis of a plot of the mean percent inhibition vs drug concentration.

The test system of assay [3] is SRS-A-induced constriction of the guinea pig ileum. The experiment in a line: Guinea Pig Ileum, In Vitro (inhibition of SRS-A-induced constriction). Conditions: Cavia porcellus; SRS-A-induced constriction; in vitro; read-out: Guinea Pig Ileum, IC50. It is filed as cell-based. How it is done: The guinea pig ileum bioassay system has been described by Orange and Austen, Adv. Immunol. […] A 1.5 cm segment is removed from animals weighing 300-400 g. and suspended in an organ bath containing 10 ml. of Tyrodes solution with 10^-6 M atropine sulfate and 10^-6 M pyrilamine maleate. […] The SRS-A utilized in this screen is obtained by challenging chopped lung fragments from actively sensitized guinea pigs with egg albumin, in vitro. A dose-response curve to SRS-A challenge is established for the ileum. […] The drug concentration which inhibits, by 50%, the SRS-A-induced constriction of the guinea pig ileum is determined.

Assay [4] relates to LTE4-induced increase of vascular permeability in rat skin. Nature of the assay: Rat Skin Permeability, In Vivo (LTE4-induced wheal). Conditions: LTE4 intradermal.
In assay [5] the target is T2, TXA2 synthase (Homo sapiens, UniProt P24557).
T2 construct: using microsomal fractions from human platelets as enzyme source; from tissue; host or cells: human platelets, microsomal fraction
T2 sequence (P24557 1-533): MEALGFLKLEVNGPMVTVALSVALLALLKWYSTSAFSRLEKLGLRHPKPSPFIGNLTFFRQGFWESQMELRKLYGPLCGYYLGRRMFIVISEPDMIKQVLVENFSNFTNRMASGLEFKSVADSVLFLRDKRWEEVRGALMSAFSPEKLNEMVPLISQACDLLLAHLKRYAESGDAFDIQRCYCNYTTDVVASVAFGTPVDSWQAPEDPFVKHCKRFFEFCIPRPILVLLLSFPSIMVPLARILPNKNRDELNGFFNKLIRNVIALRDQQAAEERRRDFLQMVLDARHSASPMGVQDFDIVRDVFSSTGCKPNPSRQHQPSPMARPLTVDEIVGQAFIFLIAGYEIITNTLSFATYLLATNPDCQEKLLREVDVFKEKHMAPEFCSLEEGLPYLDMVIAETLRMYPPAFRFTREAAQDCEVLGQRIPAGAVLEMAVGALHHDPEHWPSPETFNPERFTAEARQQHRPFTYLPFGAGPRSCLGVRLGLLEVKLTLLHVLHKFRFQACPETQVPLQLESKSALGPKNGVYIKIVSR
Nature of the assay: Thromboxane Synthase Inhibition, In Vitro. It is filed as biochemical. Conditions: human platelet microsomes; for inhibition at 0.1 µM: at 10^-7 M. The method, then: TXA2 synthase activity is measured by following the conversion of ^14 C-prostaglandin endoperoxide (PGH2) to ^14 C-thromboxane A2 (TXA2) using microsomal fractions from human platelets as enzyme source. In the aqueous incubation medium, the TXA2 decomposes rapidly into TXB2. The amount of TXA2 synthase is adjusted so that under the conditions of the assay approximately 80-90% of the substrate, PGH2, is converted to product in control tubes. To prepare ^14 C--PGH2, ^14 C--AA (50-60 mCi/mmole; Rose Chem.) is incubated with sheep seminal vesicular gland microsomes for 1.5 minutes at 37° C. and then the ^14 C--PGH2 is extracted with diethylether, purified on columns of Sephadex LH-20 or silicic acid, and stored in acetone at -70° C. Incubations are done as follows. Sufficient ^14 C--PGH2 to yield a final substrate concentration of 10 μM (30,000 cpm) is added to the incubation tubes and then the acetone is removed under nitrogen. The tubes are placed in an ice bath and then 215 μl of ice cold phosphate buffered saline, 10 μl of ethanol (control) or of test drug in ethanol, and 25 μl of the microsomal suspension are added with mixing in that order as rapidly as possible. The tubes are incubated at 22° C. for 2 minutes, the reaction is stopped and then the radioactive products and the uncoverted PGH2 are extracted and analyzed by thin layer chromatography. […] The amount of ^14 C--PGH2 converted to products was used as a measure of TXA2 synthase activity. Inhibitors were tested initially at a final concentration of 100 μM. Results obtained with representative compounds of the present invention in this assay are summarized hereafter in Table I.

For assay [6], the target named is T3, PAF receptor (dog platelets) (Canis lupus familiaris, UniProt A0A8I3NSH0).
T3 construct: followed by 2×10^7 dog platelets; from tissue; host or cells: dog platelets, washed, intact
T3 sequence (A0A8I3NSH0 1-343): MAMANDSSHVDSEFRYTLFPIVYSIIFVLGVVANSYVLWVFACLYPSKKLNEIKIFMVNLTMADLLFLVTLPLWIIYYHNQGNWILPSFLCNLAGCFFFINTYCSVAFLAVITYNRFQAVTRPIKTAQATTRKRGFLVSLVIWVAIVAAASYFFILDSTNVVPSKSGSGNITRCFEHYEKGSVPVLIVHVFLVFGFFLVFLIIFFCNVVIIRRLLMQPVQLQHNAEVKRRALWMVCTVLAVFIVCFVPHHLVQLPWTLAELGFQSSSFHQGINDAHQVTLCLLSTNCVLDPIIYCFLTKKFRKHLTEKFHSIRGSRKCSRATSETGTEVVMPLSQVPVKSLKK
Nature of the assay: PAF Radioreceptor Binding Assay. The note with it: 3H-PAF. The method, then: Platelet rich plasma is prepared by centrifugation of citrate-treated dog blood. Acidification to pH 6.5 with 0.15M citric acid and centrifugation for 10 minutes at 1000 g yields a platelet pellet which is then washed by resuspension in EDTA-Phosphate Buffered Saline (PBS) and recentrifuged. The washed platelet preparation is adjusted to 2×10^7 platelets/50 μl in 0.1% BSA-PBS.
To a […] microfuge tube containing 50 μl silicone oil (specific gravity 1.023) is added buffer, PAF standard or analog, or an extract to bring the aqueous volume to 150 μl. 50 μl of ^3 H-PAF (10,000 cpm, 45 Ci/mM) is added followed by 2×10^7 dog platelets. After mixing, incubating for 10 minutes at room temperature, and centrifuging for 1 minute in a Beckman Microfuge B (8000 g), the pellet is removed by clipping off the tip of the tube, solubilizing the platelets with 200 μl of 50% methanol, and counting in 10 ml of Aquasol. […] Results obtained with representative compounds of the present invention in this assay are summarized hereinafter in Table I.

As for `CC(C)c1ccc2ncn(/C=C/C(=O)NCCCCn3ccnc3)c(=O)c2c1` [drawing 31], in assay [1], the “Peak Hypertension (Δmm Hg)” value is 10 ± 0 Δmm Hg, the “% Arrhythmias” value came to 0 ± 3% and the “Peak Hypotension (Δmm Hg)” value is -45 ± 8 Δmm Hg.

For the compound `CC(C)c1ccc2ncn(/C=C/C(=O)NCCCCc3cccnc3)c(=O)c2c1` [drawing 29], in assay [1], the “Peak Hypertension (Δmm Hg)” value was 21 ± 6 Δmm Hg, the “% Arrhythmias” value is recorded as 1 ± 1% and the “Peak Hypotension (Δmm Hg)” value was -45 ± 4 Δmm Hg.

Take `CC(C)c1ccc2ncn(/C=C/C(=O)NCCCCCCNc3ccccn3)c(=O)c2c1`: in assay [2], 10 µM produced 25% inhibition. The IC50 in assay [3] worked out at 5 µM.

On to `CC(C)c1ccc2ncn(/C=C/C(=O)NCCCCn3ccnc3)c(=O)c2c1` [Compound C, N-[4-(1H-imidazol-1-yl)butyl]-(E)-3-[6-(1-methylethyl)-4-oxo-4H quinazolin-3-yl]-2-propenamide], for which the ED50 in assay [4] (iv, 0.5 h, i.v., read-out: I.D.50, skin wheal, i.v.) amounted to 17 mg/kg; in assay [4] (po, read-out: I.D.50, skin wheal, oral) it was 96 mg/kg.

For the compound `CC(C)c1ccc2ncn(/C=C/C(=O)N(C)CCCCc3cccnc3)c(=O)c2c1`, in assay [5], the inhibition at 0.1 µM was 48%. In assay [3], the IC50 is 10 µM.

As to `CC(C)c1ccc2ncn(/C=C/C(=O)NCCNCc3cccnc3)c(=O)c2c1`, in assay [5] (at 10^-6 M), 1 µM produced 33% inhibition. The IC50 in assay [3] amounted to 8 µM.

Regarding `CC(C)c1cc(C(C)C)c2ncn(/C=C/C(=O)NCCCCc3cccnc3)c(=O)c2c1`, in assay [5], 0.1 µM produced 51% inhibition. The concentration for half-maximal inhibition (IC50) in assay [3] came out at 1 µM.

In assay [5], `CC(C)c1ccc2ncn(/C=C/C(=O)NCCSc3ccncc3)c(=O)c2c1` had an inhibition at 0.1 µM of 31%. In assay [2], this compound yielded an inhibition at 10 µM of 56%. In addition, the IC50 in assay [3] came out at 10 µM.

Turning to `CC(C)c1ccc2ncn(/C=C/C(=O)NCCCCOc3cccnc3)c(=O)c2c1` [drawing 30], in assay [1], the “Peak Hypertension (Δmm Hg)” value was 19 ± 7 Δmm Hg, the “% Arrhythmias” value is given as 0 ± 0% and the “Peak Hypotension (Δmm Hg)” value is -42 ± 9 Δmm Hg.

With `CC(C)c1ccc2ncn(/C=C/C(=O)NCCCCCCc3cccnc3)c(=O)c2c1`, in assay [6], the IC50 was more than 1 µM.

What is called inhibition is the change of the read-out against control, counted positive when it falls. Low values mean little suppression, high ones strong suppression. One may read the IC50 as the midpoint of a concentration-inhibition curve.

(Values after patent publication US4599336A, “Derivatives of (E)-3-(4-oxo-4H-quinazolin-3-yl)-2-propenamide” (Hoffmann-La Roche Inc., priority 1983, dated 1986).)
